Measurements as given in patent publication US4786755A, “Diphenic acid monoamides” (Warner-Lambert Company, priority 1986, dated 1988).

System: Sensitized Guinea Pigs
Assay: Slow-Onset (nonhistamine) Bronchospasm Induced by Antigen Challenge in Sensitized Guinea Pigs (SRSPIG)
Type: in vivo, guinea pig
Design: concentration or dose not given beside the values
Conditions: mepyramine pretreated, five minutes after ovalbumin
Text: Induction and Quantitation of the Slow-Onset (nonhistamine) Bronchospasm Induced by Antigen Challenge in Sensitized Guinea Pigs (SRSPIG)
This guinea pig in vivo model was developed to quantitate the pulmonary effects of nonhistamine mediated, antigen-induced anaphylaxis. Mepyramine pretreatment is used to block the effects of histamine to permit quantitation of the effects of other biologically active mediators. The method is designed to detect drugs which inhibit the release or synthesis "other" mediators, such as leukotriene, thromboxane, etc., or drugs blocking the end organ effects of these mediators. When a sensitized guinea pig is exposed to the sensitizing antigen, it develops a systemic anaphylactic response characterized by increased pulmonary resistance and decreased dynamic compliance (CDYN). Pulmonary resistance is a measure of the changes in transpulmonary pressure and respiratory flow. Dynamic compliance is an expression of the relative changes in tidal volume and transpulmonary pressure. In this model, dynamic compliance is used to measure changes in the elastic propertie of the small airways and pulmonary resistance to measure constrictive responses of the large airways. In human asthma, small airway changes appear to be more closely related to the pathogenesis of disease. Thus, dynamic compliance effects will be weighted more heavily in our analysis of the changes produced by drugs. In the presence of mepyramine, the effects of histamine are blocked. The observed pulmonary effects are thought to be largely leukotriene mediated. In the guinea pig, thromboxanes may also be involved (1,2) and might augment the leukotriene response. Since leukotrienes are not preformed mediators and their effects are slow in onset, in the absence of the histamine effect, a bronchospasm is not seen until approximately 1.5-3 minutes after antigen administration. However, the leukotriene-mediated response is long lasting.
Animals: Male Hartley strain guinea pigs, weighing between 200 and 250 g on delivery, were used. The animals were supplied by the Charles River Co., Wilmington, MA.
Sensitization Procedure: Ovalbumin (2× recrystallized, Miles Laboratories Ltd.) is dissolved (0.2 mg/ml) in saline. The guinea pigs are given a single intraperitoneal injection of 0.5 ml of the stock solution to sensitize them. The animals are maintained normally for four to six weeks before use.
Anesthesia: Surgical anesthesia is induced by giving an IP injection of valium, 5 mg/kg, followed immediately by Innovar-Vet (Pitman-More), 0.7 ml/kg (IM). Each ml of Innovar-Vet contains 0.4 mg fentanyl, 20 mg droperidol, 1.8 mg methylparaben, and 0.2 mg propylparaben.
Surgical Preparation: The anesthetized guinea pig is shaved in the ventral neck region and on the right side of the thorax and affixed supine to a dissecting board. A midline incision is made in the neck and the trachea is exposed. The jugular vein is cannulated with PE 50 tubing to administer drugs and antigen. The trachea is cannulated with PE 240 tubing. If the protocol required measuring blood pressure, the carotid artery is isolated and cannulated with PE 50 tubing. A spear-like cannula is then inserted into the thorax to measure transpulmonary pressure. Needle electrodes are inserted into the musculature of each leg to record electrocardiograms.
Pulmonary Mechanics Methods: The tracheal cannula is connected inline to a Fleisch 000 pneumotachograph (factor calibration 10 cm H2 O=22.2 ml/sec) and a Validyne differential pressure transducer, to measure respiratory flow. Transpulmonary pressure is measured by connecting one side of a Validyne pressure transducer to the side arm of the tracheal cannula and the other side to the cannula inserted into the thorax at approximately the 5th intercostal space.
The pressure and flow signals are fed into Validyne preamplifiers and then transmitted to a pulmonary mechanics computer (Buxco). […]

Row | Structure (SMILES) | SRS-PIG, percent inhibition (CDYN) [%]
1 | O=C(O)c1ccccc1-c1ccccc1C(=O)Nc1ccc(OCCCc2ccccc2)cc1 [Example 2] | 64
2 | O=C(O)c1ccccc1-c1ccccc1C(=O)Nc1ccc(CCCc2ccccc2)cc1 [Example 16, [1,1'-Biphenyl]-2-carboxylic acid, 2'-[[[4-(3-phenylpropyl]phenyl]amino]carbonyl]-] | 33
3 | O=C(O)c1ccccc1-c1ccccc1C(=O)Nc1ccc(CCc2ccc(Cl)c(Cl)c2)cc1 [Example 3, [1,1'-Biphenyl]-2-carboxylic acid, 2'-[[[4-[2-(3,4-dichlorophenyl)ethyl]phenyl]amino]carbonyl]-] | 16
4 | O=C(O)c1ccccc1-c1ccccc1C(=O)Nc1ccc(CCCc2ccc(Cl)c(Cl)c2)cc1 [Example 1, [1,1'-Biphenyl]-2-carboxylic acid, 2'-[[[4-[3-(3,4-dichlorophenyl)propyl]phenyl]amino]carbonyl]-] | 51
5 | O=C(O)c1ccccc1-c1ccccc1C(=O)Nc1cccc(CCc2ccc(Cl)c(Cl)c2)c1 [Example 4, [1,1'-Biphenyl]-2-carboxylic acid, 2'-[[[3-[2-(3,4-dichlorophenyl)ethyl]phenyl]amino]carbonyl]-] | 3
6 | O=C(O)c1ccccc1-c1ccccc1C(=O)Nc1ccc(CCCCCc2ccccc2)cc1 [Example 21, [1,1'-Biphenyl]-2-carboxylic acid, 2'-[[[4-(5-phenylpentyl)phenyl]amino]carbonyl]-] | 21
